Some results are limits rather than exact numbers.

The values below come from patent publication US8846704B2, “Thiopyrimidine-based compounds and uses thereof” (YM Biosciences Austraila Pty Ltd, priority 2007, dated 2014).

Assay type in all cases: cell-based
For experiment [1], the target named is T1, BaF3 TELJAK2 cells (BafT_J2) (Homo sapiens, UniProt O60674).
T1 construct: fused on or other part: TEL (ETV6) N-terminal part, coding nucleotides 1-487, serves as the oligomerising partner; It is fused through a Sal I site to the JAK2 kinase domain and expressed from pTRE2 in BaF3 cells bearing pTET-off; P41212 (Transcription factor ETV6)
Description: Cellular screening, BaF3 TEL:JAK2 cells, Alamar Blue. The note with it: 40 hr, read-out: BafT_J2 IC50_nM. In short, it runs like this: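 Tet-off BaF3 cells carrying a TEL (nt 1-487)–JAK2 kinase-domain fusion, grown factor-independently in DMEM with 10% Tet-approved FBS without WEHI 3B medium. Compounds were diluted to 20 μM in screening plates, and cells (50,000–200,000 cell/mL at 1.1×) were incubated 40 hr at 37 °C, 5% CO2. Alamar Blue was then added for 4-6 hours; read at 544 nm.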
A general note: Alamar Blue is a resazurin reagent that responds to reducing activity.

The target of the next experiment is T2, BaF3 TELJAK3 cells (Homo sapiens, UniProt P52333).
T2 construct: fused on or other part: TEL (ETV6) N-terminal part, coding nucleotides 1-487, serves as the oligomerising partner; It is fused through a Sal I site to the JAK3 kinase domain and expressed from pTRE2 in BaF3 cells bearing pTET-off; P41212 (Transcription factor ETV6)
T2 sequence (P52333 1-1124): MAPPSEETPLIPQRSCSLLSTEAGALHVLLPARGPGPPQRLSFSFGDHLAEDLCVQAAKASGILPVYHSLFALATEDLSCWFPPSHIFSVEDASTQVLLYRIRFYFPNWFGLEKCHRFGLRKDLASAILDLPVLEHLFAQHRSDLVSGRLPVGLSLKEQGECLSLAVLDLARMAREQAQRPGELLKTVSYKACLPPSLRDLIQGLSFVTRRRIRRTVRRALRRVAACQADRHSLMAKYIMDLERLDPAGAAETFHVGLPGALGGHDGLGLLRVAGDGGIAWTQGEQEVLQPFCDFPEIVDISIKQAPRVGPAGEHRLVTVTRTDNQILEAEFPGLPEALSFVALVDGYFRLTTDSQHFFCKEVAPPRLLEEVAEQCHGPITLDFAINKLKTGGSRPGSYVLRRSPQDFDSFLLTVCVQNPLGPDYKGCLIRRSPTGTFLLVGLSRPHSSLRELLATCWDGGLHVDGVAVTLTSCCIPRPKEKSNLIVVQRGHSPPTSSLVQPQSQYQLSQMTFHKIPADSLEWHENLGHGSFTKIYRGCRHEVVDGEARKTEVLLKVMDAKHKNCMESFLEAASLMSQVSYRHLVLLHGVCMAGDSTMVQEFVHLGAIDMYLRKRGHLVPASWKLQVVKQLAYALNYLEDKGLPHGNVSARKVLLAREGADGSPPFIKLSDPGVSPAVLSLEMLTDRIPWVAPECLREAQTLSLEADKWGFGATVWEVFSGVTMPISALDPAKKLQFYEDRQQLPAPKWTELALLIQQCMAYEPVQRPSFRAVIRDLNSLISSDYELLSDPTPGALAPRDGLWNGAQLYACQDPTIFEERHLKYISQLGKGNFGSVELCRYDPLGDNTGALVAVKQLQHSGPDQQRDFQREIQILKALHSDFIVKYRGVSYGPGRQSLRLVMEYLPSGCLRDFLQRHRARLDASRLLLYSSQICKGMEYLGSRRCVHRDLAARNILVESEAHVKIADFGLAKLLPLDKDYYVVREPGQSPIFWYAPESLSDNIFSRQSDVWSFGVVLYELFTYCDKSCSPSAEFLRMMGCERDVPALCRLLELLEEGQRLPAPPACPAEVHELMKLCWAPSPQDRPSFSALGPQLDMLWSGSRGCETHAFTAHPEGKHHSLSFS
Description: Cellular screening, BaF3 TEL:JAK3 cells, Alamar Blue. The note with it: 40 hr, read-out: BafT_J3 IC50_nM. An outline of the steps: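 BaF3 cells carrying pTET-off and a TEL–JAK3 kinase-domain fusion, selected for growth-factor independence, were grown in DMEM with 10% Tet-approved FBS without WEHI 3B medium. Cells were exposed to compounds for 40 h at 37 °C, 5% CO2. Viability was read with Alamar Blue (4–6 h) at 544 nm.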

The next experiment deals with CTLL2. Nature of the experiment: Cellular screening, CTLL2 cells, Alamar Blue. The following applies: Mus musculus, CTLL-2, read-out: CTLL2 IC50_nM. An outline of the steps:
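CTLL2 cells in late log phase incubated with compound for 40 hr at 37° C, 5% CO2. Viability then read at 544 nm after a further 4-6 hours with Alamar Blue.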

T1 sequence (O60674 whole entry, change not shown, the tested form may be a part): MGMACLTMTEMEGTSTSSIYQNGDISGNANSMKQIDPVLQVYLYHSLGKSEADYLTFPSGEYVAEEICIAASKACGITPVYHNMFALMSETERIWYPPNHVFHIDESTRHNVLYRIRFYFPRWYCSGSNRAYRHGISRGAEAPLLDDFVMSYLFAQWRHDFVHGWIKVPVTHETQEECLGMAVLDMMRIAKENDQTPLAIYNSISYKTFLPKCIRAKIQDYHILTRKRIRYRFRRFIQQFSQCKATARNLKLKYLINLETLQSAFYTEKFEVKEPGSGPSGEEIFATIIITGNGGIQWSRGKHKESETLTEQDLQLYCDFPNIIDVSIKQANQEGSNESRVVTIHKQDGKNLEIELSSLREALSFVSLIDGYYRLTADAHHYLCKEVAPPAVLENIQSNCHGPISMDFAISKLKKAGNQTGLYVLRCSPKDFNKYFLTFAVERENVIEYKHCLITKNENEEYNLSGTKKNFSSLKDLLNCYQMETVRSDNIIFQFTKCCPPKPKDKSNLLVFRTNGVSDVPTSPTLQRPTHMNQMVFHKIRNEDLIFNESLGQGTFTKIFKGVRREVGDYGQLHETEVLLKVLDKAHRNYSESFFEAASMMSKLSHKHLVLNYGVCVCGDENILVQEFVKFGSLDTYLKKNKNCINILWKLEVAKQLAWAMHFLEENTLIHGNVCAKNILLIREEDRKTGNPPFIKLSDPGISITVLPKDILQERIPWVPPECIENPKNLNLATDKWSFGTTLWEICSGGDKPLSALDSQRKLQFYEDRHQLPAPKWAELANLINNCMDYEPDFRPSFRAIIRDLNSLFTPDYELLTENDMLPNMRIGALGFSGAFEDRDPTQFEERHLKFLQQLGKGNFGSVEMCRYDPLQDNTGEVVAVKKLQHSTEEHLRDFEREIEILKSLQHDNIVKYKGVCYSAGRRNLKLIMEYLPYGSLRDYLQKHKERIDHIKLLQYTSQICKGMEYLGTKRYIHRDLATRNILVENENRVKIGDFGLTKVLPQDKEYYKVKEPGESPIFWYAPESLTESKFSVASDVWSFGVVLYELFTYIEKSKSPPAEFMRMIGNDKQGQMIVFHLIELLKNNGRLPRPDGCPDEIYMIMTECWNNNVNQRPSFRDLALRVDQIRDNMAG

In the case of `C=CC(=O)Nc1ccc(Sc2ccnc(Nc3ccc(C#N)cc3)n2)cc1` [Compound 131, N-(4-(2-(4-cyanophenylao)pyrimidin-4-ylthio)phenyl)acrylamide], the GI50 in experiment [1] is under 20 µM; at BaF3 TELJAK3 cells it was under 5 µM. Moreover, in the experiment on CTLL2, the IC50 was under 20 µM.

For the compound `Cc1cnc(Nc2ccc(N3CCOCC3)cc2)nc1Sc1ccc(C#N)cc1` [Compound 136, 4-(5-methyl-2-(4-morpholinophenylao)pyrimidin-4-ylthio)benzonitrile], the GI50 (in experiment [1]; on BaF3 TELJAK3 cells) was over 20 µM throughout. In the experiment on CTLL2, the IC50 was over 20 µM.

On to `CCOC(=O)c1nccn1Cc1ccc(Sc2ccnc(Nc3ccc(N4CCOCC4)cc3)n2)cc1` [Compound 148, ethyl 1-(4-(2-(4-morpholinophenylao)pyrimidin-4-ylthio)benzyl)-1H-imidazole-2-carboxylate], for which the GI50 (in experiment [1]; at BaF3 TELJAK3 cells) was under 20 µM in each case. For the same compound, the IC50 with CTLL2 was under 20 µM.

As to `NC(=O)c1nccn1Cc1ccc(Sc2ccnc(Nc3ccc(N4CCOCC4)cc3)n2)cc1` [Compound 149, 1-(4-(2-(4-morpholinophenylao)pyrimidin-4-ylthio)benzyl)-1H-imidazole-2-carboxamide], the GI50 (in experiment [1]; at BaF3 TELJAK3 cells) was under 5 µM in each case. Besides, the IC50 with CTLL2 was under 20 µM.

With `N#Cc1nccc(Sc2ccc(Sc3ccnc(Nc4ccc(N5CCOCC5)cc4)n3)cc2)n1` [Compound 154, 4-(4-(2-(4-morpholinophenylao)pyrimidin-4-ylthio)phenylthio)pyrimidine-2-carbonitrile], the GI50 (in experiment [1]; on BaF3 TELJAK3 cells) was under 5 µM in each case. For the same compound, the IC50 in the experiment with CTLL2 was under 5 µM.

Take `C=CC(=O)Nc1ccc(Sc2ccnc(Nc3ccc(N4CCOCC4)cc3)n2)c(Cl)c1C` [Compound 161, N-(3-chloro-2-methyl-4-(2-(4-morpholinophenylao)pyrimidin-4-ylthio)phenyl)acrylamide]: the GI50 in experiment [1] is over 20 µM; at BaF3 TELJAK3 cells it was under 1 µM. Moreover, the IC50 with CTLL2 was under 5 µM.

In the case of `C=CC(=O)Nc1cc(C)c(Sc2nc(Nc3ccc(N4CCOCC4)cc3)ncc2C)c(C)c1` [Compound 164, N-(3,5-dimethyl-4-(5-methyl-2-(4-morpholinophenylao)pyrimidin-4-ylthio)phenyl)acrylamide], the GI50 in experiment [1] is under 20 µM; at BaF3 TELJAK3 cells it was under 1 µM. Further, the IC50 in the experiment with CTLL2 was under 1 µM.

With `Cc1cnc(Nc2ccc(N3CCOCC3)cc2)nc1Sc1ccc2c(c1)CCCN2` [Compound 166, 5-methyl-N-(4-morpholinophenyl)-4-(1,2,3,4-tetrahydroquinolin-6-ylthio)pyrimidin-2-ae], the GI50 in experiment [1] was under 5 µM; at BaF3 TELJAK3 cells, under 20 µM. Moreover, the IC50 with CTLL2 was under 20 µM.

For `C=CC(=O)Nc1ccc(Sc2nc(Nc3ccc(N4CCOCC4)cc3)ncc2C)c(Cl)c1C` [Compound 171, N-(3-chloro-2-methyl-4-(5-methyl-2-(4-morpholinophenylao)pyrimidin-4-ylthio)phenyl)acrylamide], the GI50 in experiment [1] was over 20 µM; on BaF3 TELJAK3 cells, under 5 µM. In addition, the IC50 in the experiment with CTLL2 is under 20 µM.

With `CSc1nc(Nc2ccc(N3CCOCC3)cc2)ncc1C` [Compound 176, 5-methyl-4-(methylthio)-N-(4-morpholinophenyl)pyrimidin-2-ae], the GI50 (in experiment [1]; on BaF3 TELJAK3 cells) was under 5 µM in each case. The IC50 in the experiment with CTLL2 was under 5 µM.

Take `Cc1cnc(Nc2ccc(N3CCOCC3)cc2)nc1Sc1ccc(NC(=O)COCC(=O)O)cc1` [Compound 188, 2-(2-(4-(5-methyl-2-(4-morpholinophenylao)pyrimidin-4-ylthio)phenylao)-2-oxoethoxy)acetic acid]: the GI50 (in experiment [1]; at BaF3 TELJAK3 cells) was over 20 µM throughout. In addition, in the experiment with CTLL2, the IC50 was over 20 µM.

As to `COC(=O)COCC(=O)Nc1ccc(Sc2nc(Nc3ccc(N4CCOCC4)cc3)ncc2C)cc1` [Compound 189, methyl 2-(2-(4-(5-methyl-2-(4-morpholinophenylao)pyrimidin-4-ylthio)phenylao)-2-oxoethoxy)acetate], the GI50 (in experiment [1]; on BaF3 TELJAK3 cells) was under 20 µM each time. In addition, in the experiment with CTLL2, the IC50 was over 20 µM.

Regarding `C=CC(=O)Nc1ccc(Sc2ccnc(Nc3ccccc3O)n2)cc1` [Compound 279, N-(4-(2-(2-hydroxyphenylao)pyrimidin-4-ylthio)phenyl)acrylamide], the GI50 (in experiment [1]; at BaF3 TELJAK3 cells) was under 20 µM each time. In addition, in the experiment on CTLL2, the IC50 was under 20 µM.

`C=CC(=O)Nc1ccc(Sc2nc(Nc3cccc(O)c3)ncc2C)cc1` [Compound 281, N-(4-(2-(3-hydroxyphenylao)-5-methylpyrimidin-4-ylthio)phenyl)acrylamide]: the figures for the GI50 (in experiment [1]; at BaF3 TELJAK3 cells) were under 20 µM and under 1 µM, respectively. In addition, in the experiment with CTLL2, the IC50 is under 1 µM.

Consider `C=CC(=O)Nc1ccc(Sc2nc(Nc3ccc(O)cc3)ncc2C)cc1` [Compound 282, N-(4-(2-(4-hydroxyphenylao)-5-methylpyrimidin-4-ylthio)phenyl)acrylamide], for which the figures for the GI50 (in experiment [1]; at BaF3 TELJAK3 cells) were under 20 µM and under 1 µM, respectively. Also, the IC50 in the experiment with CTLL2 was under 1 µM.

`C=CC(=O)Nc1ccc(Sc2nc(Nc3ccc(OC)c(O)c3)ncc2C)cc1` [Compound 283, N-(4-(2-(3-hydroxy-4-methoxyphenylao)-5-methylpyrimidin-4-ylthio)phenyl)acrylamide]: the values for the GI50 (in experiment [1]; on BaF3 TELJAK3 cells) were under 20 µM and under 1 µM, respectively. For the same compound, in the experiment with CTLL2, the IC50 is under 1 µM.

Regarding `C=CC(=O)Nc1ccc(Sc2nc(Nc3ccc4c(c3)OCO4)ncc2C)cc1` [Compound 284, N-(4-(2-(benzo[d][1,3]dioxol-5-ylao)-5-methylpyrimidin-4-ylthio)phenyl)acrylamide], the figures for the GI50 (in experiment [1]; on BaF3 TELJAK3 cells) were under 20 µM and under 1 µM, respectively. The IC50 in the experiment with CTLL2 was under 1 µM.

As for `C=CC(=O)Nc1ccc(Sc2nc(Nc3cccc(OC(F)(F)F)c3)ncc2C)cc1` [Compound 289, N-(4-(5-methyl-2-(3-(trifluoromethoxy)phenylao)pyrimidin-4-ylthio)phenyl)acrylamide], the GI50 in experiment [1] was under 20 µM; on BaF3 TELJAK3 cells, under 5 µM. For the same compound, the IC50 in the experiment with CTLL2 was under 1 µM.

`C=CC(=O)Nc1ccc(Sc2nc(Nc3ccc(N4CCC(C(=O)OCC)CC4)cc3)ncc2C)cc1` [Compound 292, ethyl 1-(4-(4-(4-acrylamidophenylthio)-5-methylpyrimidin-2-ylao)phenyl)piperidine-4-carboxylate]: the GI50 in experiment [1] was over 20 µM; at BaF3 TELJAK3 cells, under 5 µM. For the same compound, in the experiment on CTLL2, the IC50 was under 5 µM.

As to `C=CC(=O)Nc1ccc(Sc2nc(Nc3ccc(CNS(C)(=O)=O)cc3)ncc2C)cc1` [Compound 294, N-(4-(5-methyl-2-(4-(methylsulfonamidomethyl)phenylao)pyrimidin-4-ylthio)phenyl)acrylamide], the GI50 in experiment [1] was over 20 µM; at BaF3 TELJAK3 cells, under 1 µM. Further, the IC50 in the experiment with CTLL2 was under 1 µM.

With `C=CC(=O)Nc1ccc(Sc2nc(Nc3ccc(N4CCS(=O)(=O)CC4)cc3)ncc2C)cc1` [Compound 298, N-{4-[(2-{[4-(1,1-dioxo-1λ^6,4-thiomorpholin-4-yl)phenyl]ao}-5-methylpyrimidin-4-yl)sulfanyl]phenyl}prop-2-enamide], the values for the GI50 (in experiment [1]; at BaF3 TELJAK3 cells) were under 20 µM and under 1 µM, respectively. For the same compound, the IC50 in the experiment on CTLL2 is under 1 µM.
